IC50 data for 11 molecules are collected here from patent US20240002391A1, “4-ALKOXYPYRROLO[2,1-F][1,2,4]TRIAZINES AND PREPARATION AND USES THEREOF” (BioSplice Therapeutics, Inc., priority 2022, published 2024).

The target in the test is recombinant DYRK1A kinase (Homo sapiens (Human), UniProt Q13627). The test can be described thus: DYRK1A kinase assay (Ser/Thr 18 peptide Z-lyte FRET). To be noted: DYRK1A kinase activity, Z-lyte Ser/Thr 18 peptide, 15 μM ATP; method text calls the value IC50; read-out: EC50 (the source's name). The class given is biochemical. In a few lines: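 Z-lyte FRET: recombinant DYRK1A 0.25 μg/mL, ATP 15 μM, Ser/Thr 18 peptide 4 μM, with compound (11-point 1:3, 10 μM top) 1 h at room temperature, then development reagent 1 h. Coumarin/fluorescein emission ratio converted to % phosphorylation; IC50 by non-linear regression, duplicates.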
With `COc1nc(N[C@@H]2CCN(C3COC3)CC2(F)F)nn2ccc(-c3cc(F)c4nc(C)n(CC(F)F)c4c3)c12` [Compound 164, (R)—N-(3,3-Difluoro-1-(oxetan-3-yl)piperidin-4-yl)-5-(1-(2,2-difluoroethyl)-4-fluoro-2-methyl-1H-benzo[d]imidazol-6-yl)-4-methoxypyrrolo[2,1-f][1,2,4]triazin-2-amine], the IC50 amounted to 2.1 nM.

For `COc1nc(NC23CC(NC(C)=O)(C2)C3)nn2ccc(-c3ccc4nccnc4c3)c12` [Compound 382, N-(3-((4-Methoxy-5-(quinoxalin-6-yl)pyrrolo[2,1-f][1,2,4]triazin-2-yl)amino)bicyclo[1.1.1]pentan-1-yl)acetamide], the IC50 was found to be 1.8 nM.

With `COc1nc(N[C@H]2CC[C@](C)(OC)CC2)nn2ccc(-c3cnc4nccn4c3)c12` [Compound 954, 5-(Imidazo[1,2-a]pyrimidin-6-yl)-4-methoxy-N-((1r,4r)-4-methoxy-4-methylcyclohexyl)pyrrolo[2,1-f][1,2,4]triazin-2-amine], the IC50 was 0.9 nM.

With `CCN1C[C@H](F)[C@H](Nc2nc(OC)c3c(-c4ccc5nnn(CC(F)F)c5c4)ccn3n2)C1` [Compound 732, 5-(1-(2,2-Difluoroethyl)-1H-benzo[d][1,2,3]triazol-6-yl)-N-((3R,4S)-1-ethyl-4-fluoropyrrolidin-3-yl)-4-methoxypyrrolo[2,1-f][1,2,4]triazin-2-amine], the IC50 was found to be 1 nM.

As to `COc1nc(NC2CCN(CC(F)F)CC2)nn2ccc(-c3ccc4ncccc4c3)c12` [Compound 304, N-(1-(2,2-Difluoroethyl)piperidin-4-yl)-4-methoxy-5-(quinolin-6-yl)pyrrolo[2,1-f][1,2,4]triazin-2-amine], the IC50 was determined as 14.3 nM.

In the case of `CCC(=O)N1CC[C@H](Nc2nc(OC)c3c(-c4ccc5nnn(CC(F)F)c5c4)ccn3n2)[C@H](F)C1` [Compound 773, 1-((3R,4S)-4-((5-(1-(2,2-Difluoroethyl)-1H-benzo[d][1,2,3]triazol-6-yl)-4-methoxypyrrolo[2,1-f][1,2,4]triazin-2-yl)amino)-3-fluoropiperidin-1-yl)propan-1-one], the IC50 was 0.7 nM.

As for `COc1nc(N[C@H]2CC[C@](C)(O)CC2)nn2ccc(-c3ccc4ncc(C(N)=O)n4c3)c12` [Compound 104, 6-(2-((trans-4-hydroxy-4-methylcyclohexyl)amino)-4-methoxypyrrolo[2,1-f][1,2,4]triazin-5-yl)imidazo[1,2-a]pyridine-3-carboxamide], the IC50 was determined as 1.2 nM.

On to `CNC(=O)C12CC(Nc3nc(OC)c4c(-c5ccc6nnn(C)c6c5)ccn4n3)(C1)C2` [Compound 226, 3-((4-Methoxy-5-(1-methyl-1H-benzo[d][1,2,3]triazol-6-yl)pyrrolo[2,1-f][1,2,4]triazin-2-yl)amino)-N-methylbicyclo[1.1.1]pentane-1-carboxamide], for which the IC50 was found to be 3.2 nM.

In the case of `COc1nc(NC2CCC3(CC2)CN(C(=O)OC(C)(C)C)C3)nn2ccc(-c3ccc4ncnn4c3)c12` [Compound 197, tert-Butyl 7-((5-([1,2,4]triazolo[1,5-a]pyridin-6-yl)-4-methoxypyrrolo[2,1-f][1,2,4]triazin-2-yl)amino)-2-azaspiro[3.5]nonane-2-carboxylate], the IC50 was found to be 29.6 nM.

As to `COc1nc(N[C@@H](C)c2ccccn2)nn2ccc(-c3ccn4nccc4c3)c12` [Compound 393, (S)-4-Methoxy-5-(pyrazolo[1,5-a]pyridin-5-yl)-N-(1-(pyridin-2-yl)ethyl)pyrrolo[2,1-f][1,2,4]triazin-2-amine], the IC50 was 178 nM.

Take `COc1nc(N[C@@H]2CCN(C(C)=O)C[C@@H]2F)nn2ccc(-c3cc(F)c4nc(C)n(CC(F)F)c4c3)c12` [Compound 520, 1-((3S,4R)-4-((5-(1-(2,2-Difluoroethyl)-4-fluoro-2-methyl-1H-benzo[d]imidazol-6-yl)-4-methoxypyrrolo[2,1-f][1,2,4]triazin-2-yl)amino)-3-fluoropiperidin-1-yl)ethan-1-one]: the IC50 worked out at 3 nM.
